From patent US20220267374A1, “IMMUNITY INDUCER AND PHARMACEUTICAL COMPOSITION FOR PREVENTING OR TREATING AGING-RELATED DISEASES” (priority 2019, published 2022)
Ends that are not written are not given here.

Assays:
[1] = Survival curve (Kaplan-Meier); format: in vivo, Zmpste24 KO mice; settings: normal diet, s.c. vaccination at 10 weeks of age; regardless of gender; FIG. 2M
Procedure: In addition, Zmpste24-deficient (KO) mice (model of Hutchinson-Gilford progeria syndrome, MGI: 2158363) were used as a model of premature aging mice. Generation and genotyping of Zmpste24 KO mice followed the previous report (http://www.informatics.jax.org/allele/MGI:2158363).
Zmpste24 KO mice were bred on normal diet. For some Zmpste24 KO mice, peptide vaccine 1 was administered by subcutaneous injection at a time point of 10 weeks of age (about 50 weeks of age in C57BL/6 mice). Survival curves were calculated by the Kaplan-Meier method and compared by a log-rank test (refer to FIG. 2M).

[2] = Metabolic test (glucose tolerance test and insulin tolerance test); format: in vivo, C57BL/6 mice; settings: HFD-fed mice, 16 weeks of age, s.c. vaccination at 8 weeks of age; compared to control vaccine; FIG. 2I
Procedure: Mice were bred individually from 1 week before the test. On the day of the glucose tolerance test (GTT), mice were fasted for 6 hours, followed by intraperitoneal injection of glucose at a dose of 1 g/kg (body weight) in the early afternoon. For the insulin tolerance test (ITT), mice were intraperitoneally administered with human insulin (1 U/kg (body weight)). After administration of glucose or insulin, tail venous blood was collected 0, 15, 30, 60 and 120 minutes later, and the blood glucose level was measured with a glucose analyzer (Sanwa Chemical Research Institute).
A metabolic test was performed using the same method as in “5.” of Reference Example 1, except that C57BL/6 mice (16 weeks of age) bred by feeding HFD from 4 weeks of age and administered with peptide vaccine 1, peptide vaccine 2, or control vaccine by subcutaneous injection at a time point of 8 weeks of age were used. In FIG. 2I, “Cont vaccine” is a C57BL/6 mouse administered with a control vaccine, “Gpnmb vaccine 1” is a C57BL/6 mouse administered with peptide vaccine 1, and “Gpnmb vaccine 2” is a C57BL/6 mouse administered with peptide vaccine 2.

[3] = test system: Gpnmb, Cdkn1a, and Cdkn2a; assay: RNA analysis (qPCR) of adipose tissue; format: in vivo, C57BL/6 mice; settings: HFD-fed mice, 16 weeks of age, s.c. vaccination at 8 weeks of age, FIG. 2C
Procedure: Total RNA (1 μg) was isolated from adipose tissue samples using RNA-Bee (TEL-TEST Inc.). Real-time PCR (qPCR) was performed using a Light Cycler 480 (Roche) equipped with a universal probe library and a Light Cycler 480 probe master (Roche) according to the manufacturer's instructions. Rplp0 was used as an internal control.
RNA analysis of Gpnmb, Cdkn1a, and Cdkn2a was performed using the same method as in “4.” of Reference Example 1, except that adipose tissue collected from C57BL/6 mice (16 weeks of age) bred by feeding HFD from 4 weeks of age and administered with peptide vaccine 1 or a control vaccine by subcutaneous injection at a time point of 8 weeks of age was used. In FIG. 2C, “Cont vac” is a C57BL/6 mouse administered with a control vaccine, and “Gpnmb vac” is a C57BL/6 mouse administered with peptide vaccine 1.

[4] = test system: p19^Arf; assay: Analysis of p19Arf-dependent luciferase activity; format: in vivo, p19^Arf-DTR-Luc mouse; settings: HFD-fed p19Arf-DTR-Luc mouse, 21 weeks of age, s.c. vaccination at 13 weeks of age; vs control vaccine; FIG. 2F
[5] = test system: GPNMB protein; assay: Antibody titer by ELISA in plasma of vaccinated mice; format: in vivo, C57BL/6 mice; settings: vs control vaccine group; KLH-bound peptide 20 μg with Titer Max Gold s.c. at 8 weeks of age, HFD-fed mice; plasma up to 6 weeks; FIG. 2A
Procedure: First, the antibody titers of the obtained two peptide vaccines were examined. Peptide vaccine 1 or peptide vaccine 2 (20 μg) and Titer Max Gold adjuvant (Titer Max USA) conjugated with KLH as carrier protein for induction of cytotoxic antibody were mixed in two syringes according to the manufacturer's protocol for emulsification. Subsequently, eight-week-old C57BL/6 mice fed with HFD from 4 weeks of age were subcutaneously injected with KLH-binding antigen peptide (20 μg) with a Titer Max Gold adjuvant to induce cytotoxic antibodies. C57BL/6 mice in the control group were subcutaneously injected with a KLH solution (hereinafter, referred to as “control vaccine”) mixed with Titer Max Gold in an equal amount. Plasma was collected from the tail vein of each mouse immediately after administration of the peptide vaccine and after 2, 4, and 6 weeks for antibody titer analysis. The antibody titer produced by injection of each peptide was measured by ELISA. Specifically, first, a 96-well microtiter plate (Nunc-Immuno MicroWell 96-well solid plate, Thermo Scientific) was coated using a carbonate buffer containing peptide vaccine 1 or peptide vaccine 2 bonded to bovine serum albumin (BSA). […] After reacting with the TMB substrate (Sigma-Aldrich, T0440), the optical density was measured at 450 nm (0D450) using a microtiter plate reader (iMark microplate reader, Bio-Rad).

RRGDGRWKD (also: KLH conjugate; listed as Mus musculus) [peptide vaccine 1, peptide of positions 63 to 71 of mouse GPNMB protein]
lifespan (survival curve) [1]: extended
metabolic abnormality induced by HFD intake (glucose tolerance test and insulin tolerance test) [2]: significantly improved
expression of Cdkn1a [3]: downregulation
expression of Cdkn2a [3]: downregulation
p19Arf-dependent luciferase activity in visceral adipose tissue [4]: decrease
antibody titer against GPNMB protein [5]: significantly higher
